Legend:
human ETB receptor = molecular target: T1, human ETB receptor (Homo sapiens, UniProt P24530); test: ETB receptor binding assay ([125I]-ET3, CHO cell membranes); settings: cloned human ETB receptor, 25 pM [125I]-ET3, 25° C.
T1 construct: expressed in transfected cells; host or cells: CHO cells (membrane preparation)
T1 sequence (P24530 27-442): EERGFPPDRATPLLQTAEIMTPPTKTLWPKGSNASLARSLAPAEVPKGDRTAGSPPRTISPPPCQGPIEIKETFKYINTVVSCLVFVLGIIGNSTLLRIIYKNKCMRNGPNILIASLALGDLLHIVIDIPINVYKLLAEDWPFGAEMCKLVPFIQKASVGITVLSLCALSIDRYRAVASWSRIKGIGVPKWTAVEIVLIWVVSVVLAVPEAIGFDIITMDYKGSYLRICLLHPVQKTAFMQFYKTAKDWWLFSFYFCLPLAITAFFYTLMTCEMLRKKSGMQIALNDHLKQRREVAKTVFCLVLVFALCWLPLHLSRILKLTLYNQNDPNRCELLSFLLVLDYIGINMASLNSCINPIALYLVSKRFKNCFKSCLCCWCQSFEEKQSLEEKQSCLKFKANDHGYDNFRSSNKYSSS
Procedure: (§1) Cloned human ETA or ETB receptor-expressing CHO cells were employed for binding studies.
(§2) The ETA or ETB receptor-expressing CHO cells were grown in DmeM NUT MIX F12-medium (Gibco, No. 21331-020) with 10% fetal calf serum (PAA Laboratories GmbH, Linz, No. A15-022), 1 mM glutamine (Gibco No. 25030-024), 100 U/ml penicillin and 100 μg/ml streptomycin (Gibco [sic], Sigma No. P-0781). After 48 hours, the cells were washed with PBS and incubated with 0.05% trypsin-containing PBS at 37° C. for 5 minutes. This was followed by neutralization with medium, and the cells were collected by centrifugation at 300×g.
(§3) For the membrane preparation, the cells were adjusted to a concentration of 10^8 cells/ml of buffer (50 mM tris.HCL [sic] buffer, pH 7.4) and then disintegrated by ultrasound Branson Sonifier 250, 40-70 seconds/constant/output [sic] 20).
(§4) For the ETA and ETB receptor binding assay, the membranes were suspended in incubation buffer (50 mM tris-HCl, pH 7.4 with 5 mM MnCl2, 40 mg/ml Bacitracin and 0.2% BSA) in a concentration of 50 μg of protein per assay mixture and incubated with 25 pM [125I]-ET1 [sic] (ETA receptor assay) or 25 pM [125I]-ET3 [sic] (ETB receptor assay) at 25° C. in the presence and absence of test substance. The nonspecific binding was determined with 10^−7 M ET1. After 30 min, filtration through GF/B glass fiber filters (Whatman, England) in a Skatron cell harvester (Skatron, Lier, Norway) was carried out to separate free and bound radioligand, and the filters was washed with ice-cold tris-HCl buffer, pH 7.4 with 0.2% BSA. The radioactivity collected on the filters was quantified using a Packard 2200 CA liquid scintillation counter.
(§5) Receptor binding data were measured by the binding assay described above for the compounds listed below.

human ETA receptor = molecular target: T2, human ETA receptor (Homo sapiens, UniProt P25101); test: ETA receptor binding assay ([125I]-ET1, CHO cell membranes); settings: cloned human ETA receptor, 25 pM [125I]-ET1, 25° C.
T2 construct: expressed in transfected cells; host or cells: CHO cells (membrane preparation)
T2 sequence (P25101 21-427): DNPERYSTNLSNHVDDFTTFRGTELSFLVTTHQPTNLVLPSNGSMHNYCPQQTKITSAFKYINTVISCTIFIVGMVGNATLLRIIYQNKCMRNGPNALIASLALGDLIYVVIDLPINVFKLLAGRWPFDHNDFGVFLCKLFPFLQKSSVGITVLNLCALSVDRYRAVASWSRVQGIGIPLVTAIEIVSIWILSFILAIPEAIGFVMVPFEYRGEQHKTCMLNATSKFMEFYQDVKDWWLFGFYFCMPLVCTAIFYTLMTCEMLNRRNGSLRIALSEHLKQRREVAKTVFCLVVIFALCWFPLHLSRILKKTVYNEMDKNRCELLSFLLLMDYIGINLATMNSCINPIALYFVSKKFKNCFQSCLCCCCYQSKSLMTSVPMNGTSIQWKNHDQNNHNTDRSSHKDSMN
Procedure: as §1, §2, §3, §4, §5

Row | Compound | Ki (human ETB receptor) [nM] | Ki (human ETA receptor) [nM] | melting point [°C]
1 | Cc1cc(C)nc(OC(C(=O)O)C(OCC(=O)N2CCc3ccccc3C2)(c2ccccc2)c2ccccc2)n1 (centres unmarked) [Compound I-307, 2-(4,6-Dimethyl-2-pyrimidinyloxy)-3-(2-oxo-2-(1,2,3,4-tetrahydroisoquinolin-2-yl)ethoxy)-3,3-diphenylpropionic acid] | 10 | 1.6 | –
2 | COc1cc(C)nc(OC(C(=O)O)C(OCC(=O)N(C)c2ccccc2)(c2ccccc2)c2ccccc2)n1 (centres unmarked) [Compound I-111, 2-(4-methyl-6-methoxy-2-pyrimidinyloxy)-3-(N-methyl-N-phenylcarbamoylmethoxy)-3,3-diphenylpropionic acid] | 109 | 0.3 | –
3 | Cc1cc(C)nc(OC(C(=O)O)C(OCC(=O)N(C)c2ccccc2)(c2ccccc2)c2ccccc2)n1 (centres unmarked) [Compound I-109, 2-(4,6-Dimethyl-2-pyrimidinyloxy)-3-(N-methyl-N-phenylcarbamoylmethoxy)-3,3-diphenylpropionic acid] | 142 | 0.4 | –
4 | COc1cc(C)nc(OC(C(=O)O)C(OCC(=O)N2CCc3ccccc3C2)(c2ccccc2)c2ccccc2)n1 (centres unmarked) [Compound I-309, 2-(4-Methyl-6-methoxy-2-pyrimidinyloxy)-3-(2-oxo-2-(1,2,3,4-tetrahydroisoquinolin-2-yl)ethoxy)-3,3-diphenylpropionic acid] | 12 | 1 | –

Now from value to compound:

Row | Ki (human ETB receptor) [nM] | Ki (human ETA receptor) [nM] | melting point [°C] | Compound
5 | 142 | 3 | – | CCCCN(CCCC)C(=O)COC(c1ccccc1)(c1ccccc1)C(Oc1nc(C)cc(OC)n1)C(=O)O (centres unmarked) [Compound I-349, 2-(4-Methyl-6-methoxy-2-pyrimidinyloxy)-3-(N,N-dibutylcarbamoylmethoxy)-3,3-diphenylpropionic acid]
6 | – | – | 145 to 148 | COc1cc2c(cc1OC)CN(C(=O)COC(c1ccccc1)(c1ccccc1)C(Oc1nc(C)cc(C)n1)C(=O)O)CC2 (centres unmarked) [Example 34, 2-(4,6-Dimethylpyrimidin-2-yloxy)-3-(2-oxo-2-(6,7-dimethoxy-1,2,3,4-tetrahydroisoquinolin-2-yl)ethoxy)-3,3-diphenylpropionic acid]
7 | 155 | 3.8 | – | CCCCN(CCCC)C(=O)COC(c1ccccc1)(c1ccccc1)C(Oc1nc(C)cc(C)n1)C(=O)O (centres unmarked) [Compound I-347, 2-(4,6-Dimethyl-2-pyrimidinyloxy)-3-(N,N-dibutylcarbamoylmethoxy)-3,3-diphenylpropionic acid]
8 | – | – | 185 to 187 | Cc1cc(C)nc(OC(C(=O)O)C(OCC(=O)N2Cc3ccccc3C(C)(C)C2)(c2ccccc2)c2ccccc2)n1 (centres unmarked) [Example 35, 2-(4,6-Dimethylpyrimidin-2-yloxy)-3-(2-oxo-2-(4,4-dimethyl-1,2,3,4-tetrahydroisoquinolin-2-yl)ethoxy)-3,3-diphenylpropionic acid]

— patent US6509341B1, “Carboxylic acid derivatives, carrying amido side-chains; production and use as endothelin receptor antagonists” (Abbott Laboratories, priority 1997, dated 2003)
